# Measured values from patent US7767796B2, “N4 chelator conjugates” (GE Healthcare Limited, priority 2004, dated 2010).
# Assays:
# [1] = Measurement of lipophilicity (LogP): octanol-water partition coefficient of the 99mTc complexes; format: physicochemical; conditions: for Log P (octanol/50 mM phosphate buffer): 99mTc complex of the compound, 1-octanol / 50 mM phosphate buffer pH 7.4, room temperature; for Log P: 99mTc complex, repeated in the biodistribution table
# Method: The tube was vortexed at room temperature for 1 min and then was centrifuged at high speed for 60 min. 0.1 ml samples of both phases were pipetted into other test tubes with adequate care to avoid cross contamination between the phases, and were counted in a Wallac Wizzard gamma-counter. The measurement was repeated three times.
# The partition coefficient, P, was calculated as follows: P=(cpm in octanol−(cpm background)/( (cpm in water−(cpm background).
# Usually the final partition coefficient value was expressed as log P.
# [2] = Biodistribution of the 99mTc complexes in normal male Wistar rats; format: in vivo; conditions: 99mTc complex, rat; for Clearance (% ID) HBS 120 min / Blood 120 min / Heart 120 min / Liver 120 min / Lung 120 min / Muscle 120 min / Clearance (% ID) Urine (K, B, U) 120 min: 120 min p.i.; for Blood 5 min: 5 min p.i.; for Heart/blood / Heart/liver / Heart/lung / Heart/muscle: ratio of uptake, 120 min values
# Method: The ^99mTc complexes of Compounds 4, 5 and 7 were prepared as described in Example 8. […] Animals were anaesthetised with Halothane (6% in oxygen), injected with 0.1 ml (500 MBq/ml) Test Item, sacrificed, dissected and the samples assayed for radioactivity.
Log P (octanol/50 mM phosphate buffer) [1],Log P [1],Clearance (% ID) HBS 120 min [2] [% ID],Blood 5 min [2] [% ID/G],Blood 120 min [2] [% ID/G],Heart 120 min [2] [% ID/G],Liver 120 min [2] [% ID/G],Lung 120 min [2] [% ID/G],Muscle 120 min [2] [% ID/G],Heart/blood [2],Heart/liver [2],Heart/lung [2],Heart/muscle [2],"Clearance (% ID) Urine (K, B, U) 120 min [2] [% ID]",SMILES
+0.6,0.6,74.65,3.26,0.91,0.44,6.52,1.84,0.34,0.49,0.07,0.24,1.3,21.13,"CCCCc1nc(Cl)c(CNC(=O)C(CC(C)C)NC(=O)CC(CNCCN)CNCCN)n1Cc1ccc(-c2ccccc2-c2nn[nH]n2)cc1 (centres unmarked) (99mTc complex, metal not drawn) [Compound 4]"
−0.1,−0.1,54.21,1.5,0.26,0.13,3.53,0.6,0.9,0.5,0.04,0.21,1.44,14.45,"CCCCc1nc(Cl)c(CNC(=O)C(CC(C)C)NC(=O)COCC(=O)NCCOCCOCCOCCNC(=O)CC(CNCCN)CNCCN)n1Cc1ccc(-c2ccccc2-c2nn[nH]n2)cc1 (centres unmarked) (99mTc complex, metal not drawn) [Compound 5]"
<−2,<−2,19.63,0.84,0.05,0.1,1.55,0.4,0.1,2,0.06,0.25,1,64.26,"CC[C@H](C)[C@H](NC(=O)[C@@H]1CCCN1C(=O)[C@H](Cc1cnc[nH]1)NC(=O)[C@@H](NC(=O)[C@H](Cc1ccc(O)cc1)NC(=O)[C@@H](NC(=O)[C@H](CCCNC(=N)N)NC(=O)NCCCCCCC(CNCCN)CNCCN)C(C)C)[C@@H](C)CC)C(=O)O (99mTc complex, metal not drawn) [Compound 7]"

SMILES,Log P (octanol/50 mM phosphate buffer) [1],Log P [1],Clearance (% ID) HBS 120 min [2] [% ID],Blood 5 min [2] [% ID/G],Blood 120 min [2] [% ID/G],Heart 120 min [2] [% ID/G],Liver 120 min [2] [% ID/G],Lung 120 min [2] [% ID/G],Muscle 120 min [2] [% ID/G],Heart/blood [2],Heart/liver [2],Heart/lung [2],Heart/muscle [2],"Clearance (% ID) Urine (K, B, U) 120 min [2] [% ID]"
NCCNCC(CNCCN)CC(=O)NCc1ccccc1 [Compound 3],<−2,,,,,,,,,,,,,
NCCNCC(CCCCCCNC(=O)c1ccccc1)CNCCN [Compound 6],−1.8,,,,,,,,,,,,,
